Experiments:
[1] = biological target: T1, Kappa-type opioid receptor (Cavia porcellus, UniProt P41144); assay: Binding affinity to opioid receptor kappa 1 of guinea pig brain, using [3H]U-69593 as radioligand
[2] = biological target: T2, Mu-type opioid receptor (Rattus norvegicus, UniProt P33535); assay: Binding affinity to mu-opioid receptor of rat brain using [3H]DAMGO as radioligand
[3] = Inhibition of stimulation of [35S]GTP-gamma-S, binding produced by the selective agonist (SNC-80, delta-receptor), in guinea pig caudate membranes
[4] = biological target: T3, Delta-type opioid receptor (Rattus norvegicus, UniProt P33533); assay: Binding affinity to delta-opioid receptor of rat brain using [3H]DADLE as radioligand
[5] = biological target: T3, Delta-type opioid receptor; assay: Binding affinity to delta-opioid receptor of rat brain using [3H]DADLE as radioligand.
[6] = biological target: T2, Mu-type opioid receptor; assay: Antagonist activity on agonist (DAMGO) stimulated [35S]GTP-gamma-S, binding in cloned mu opioid receptors.; type: functional
[7] = biological target: T2, Mu-type opioid receptor; assay: Binding affinity to mu-opioid receptor of rat brain using [3H]DAMGO as radioligand.
[8] = biological target: T1, Kappa-type opioid receptor; assay: Inhibition of stimulation of [35S]GTP-gamma-S, binding produced by the selective agonist (U69593, kappa-receptor), in guinea pig caudate membranes.
[9] = biological target: Mu-type opioid receptor (Cavia porcellus, UniProt P97266); assay: Inhibition of stimulation of [35S]GTP-gamma-S, binding produced by the selective agonist (DAMGO, mu-receptor), in guinea pig caudate membranes.; type: functional, cell membranes
Sequence of Mu-type opioid receptor (Cavia porcellus, UniProt P97266) (P97266 whole entry): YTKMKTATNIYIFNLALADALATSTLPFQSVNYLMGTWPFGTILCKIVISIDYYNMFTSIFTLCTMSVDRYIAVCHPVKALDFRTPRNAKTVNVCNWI

T3 sequence (P33533 whole entry): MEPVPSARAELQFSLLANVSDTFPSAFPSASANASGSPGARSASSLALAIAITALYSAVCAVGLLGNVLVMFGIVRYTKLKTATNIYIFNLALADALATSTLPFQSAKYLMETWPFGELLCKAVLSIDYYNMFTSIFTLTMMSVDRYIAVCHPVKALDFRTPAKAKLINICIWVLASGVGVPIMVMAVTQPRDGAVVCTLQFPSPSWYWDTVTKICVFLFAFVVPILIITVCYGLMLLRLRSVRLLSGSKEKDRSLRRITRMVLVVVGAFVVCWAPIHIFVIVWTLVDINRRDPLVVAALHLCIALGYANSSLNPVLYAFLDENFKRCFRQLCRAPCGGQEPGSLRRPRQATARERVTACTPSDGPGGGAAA
T1 sequence (P41144 whole entry): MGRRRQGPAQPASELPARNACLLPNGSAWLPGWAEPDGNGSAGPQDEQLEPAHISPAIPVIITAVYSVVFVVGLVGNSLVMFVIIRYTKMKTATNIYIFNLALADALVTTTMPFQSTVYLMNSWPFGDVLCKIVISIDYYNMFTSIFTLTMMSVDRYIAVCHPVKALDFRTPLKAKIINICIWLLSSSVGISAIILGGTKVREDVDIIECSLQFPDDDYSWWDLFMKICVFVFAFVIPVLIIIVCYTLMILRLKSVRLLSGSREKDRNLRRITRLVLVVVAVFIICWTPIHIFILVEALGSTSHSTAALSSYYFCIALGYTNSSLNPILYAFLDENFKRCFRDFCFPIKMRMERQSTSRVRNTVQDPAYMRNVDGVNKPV
T2 sequence (P33535 whole entry): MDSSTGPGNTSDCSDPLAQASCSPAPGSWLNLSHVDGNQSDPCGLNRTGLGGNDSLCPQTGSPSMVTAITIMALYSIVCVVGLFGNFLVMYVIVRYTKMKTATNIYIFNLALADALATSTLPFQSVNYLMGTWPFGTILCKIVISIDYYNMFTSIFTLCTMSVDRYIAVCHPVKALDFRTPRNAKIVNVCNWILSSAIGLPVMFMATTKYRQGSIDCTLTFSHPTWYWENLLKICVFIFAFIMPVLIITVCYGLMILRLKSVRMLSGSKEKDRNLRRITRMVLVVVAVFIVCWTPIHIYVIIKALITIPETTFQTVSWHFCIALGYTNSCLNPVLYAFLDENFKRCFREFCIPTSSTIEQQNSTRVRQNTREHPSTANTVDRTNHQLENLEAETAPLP

Structure (SMILES) | Ki [1] | Ki [2] | Ki [3] | Ki [4] | Ki [5] | Ki [6] | Ki [7] | Ki [8] | Ki [9]
CC(C)[C@@H](CN1CC[C@@](C)(c2cccc(O)c2)[C@@H](C)C1)NC(=O)CCc1ccc(O)cc1 | 3.84 nM | 171 nM | 450 nM | > 3400 nM |  |  |  |  | 
CC(C)[C@@H](CN1CC[C@@](C)(c2cccc(O)c2)[C@@H](C)C1)NC(=O)C1Cc2ccc(O)cc2CN1 (stereo partly specified) |  |  |  |  | 301 nM | 3.42 nM | 3.73 nM | 0.02 nM | 2.16 nM
Oc1ccc2c3c1O[C@H]1c4[nH]c5c(c4C[C@@]4(O)[C@@H](C2)N(CC2CC2)CC[C@]314)C[C@@]1(O)[C@H]2Cc3ccc(O)c4c3[C@@]1(CCN2CC1CC1)[C@H]5O4 [NORBINALTORPHIMINE] | 109 nM |  |  | 86 nM |  |  |  |  | 

— ChEMBL document CHEMBL1134559 (J Med Chem, 2001)
